The text below walks through data of US6716833B2, “Acetylenic α-amino acid-based sulfonamide hydroxamic acid tace inhibitors” (priority 1999, dated 2004).

What all share (assay type): biochemical
The target of assay [1] is MMP-13 (Homo sapiens, UniProt P45452). Briefly: MMP-13 inhibition (thiopeptide or fluorescent peptide substrate). Particulars: read-out: MMP-13 IC50.
Assay [2] addresses T1, MMP-1 (Homo sapiens, UniProt P03956).
T1 sequence (P03956 100-469): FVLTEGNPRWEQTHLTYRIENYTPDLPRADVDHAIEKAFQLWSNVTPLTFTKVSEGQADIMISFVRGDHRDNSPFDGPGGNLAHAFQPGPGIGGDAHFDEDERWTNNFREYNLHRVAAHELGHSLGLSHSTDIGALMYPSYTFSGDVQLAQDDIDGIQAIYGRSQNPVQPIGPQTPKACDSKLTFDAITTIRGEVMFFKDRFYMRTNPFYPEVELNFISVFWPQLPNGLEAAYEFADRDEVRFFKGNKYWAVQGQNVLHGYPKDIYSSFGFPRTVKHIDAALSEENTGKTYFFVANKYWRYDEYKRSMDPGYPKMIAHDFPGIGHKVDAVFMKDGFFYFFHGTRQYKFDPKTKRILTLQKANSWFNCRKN
Briefly: MMP-1 inhibition (thiopeptide or fluorescent peptide substrate).

The target of assay [3] is TNF-α converting enzyme (TACE) (Homo sapiens, UniProt P78536). The experiment in a line: TACE inhibition (fluorescent peptidyl substrate).
Sequence of TNF-α converting enzyme (TACE) (P78536 215-824, species assumed): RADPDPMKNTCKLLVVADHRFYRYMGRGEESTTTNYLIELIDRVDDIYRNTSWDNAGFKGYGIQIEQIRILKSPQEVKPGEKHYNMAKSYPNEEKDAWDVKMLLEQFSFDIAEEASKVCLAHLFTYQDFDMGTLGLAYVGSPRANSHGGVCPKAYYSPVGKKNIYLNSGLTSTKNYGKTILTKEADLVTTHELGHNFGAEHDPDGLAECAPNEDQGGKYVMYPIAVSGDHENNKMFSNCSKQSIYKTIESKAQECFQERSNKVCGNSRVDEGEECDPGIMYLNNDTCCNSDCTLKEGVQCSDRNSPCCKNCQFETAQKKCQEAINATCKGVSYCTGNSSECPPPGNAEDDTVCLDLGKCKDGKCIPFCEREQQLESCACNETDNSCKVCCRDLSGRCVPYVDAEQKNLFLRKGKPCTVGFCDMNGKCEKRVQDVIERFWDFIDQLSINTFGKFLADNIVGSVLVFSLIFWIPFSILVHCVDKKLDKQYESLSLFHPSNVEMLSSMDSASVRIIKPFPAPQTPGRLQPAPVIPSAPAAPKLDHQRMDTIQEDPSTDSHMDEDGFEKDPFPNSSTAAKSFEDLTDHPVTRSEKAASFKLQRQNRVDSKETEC

Where two headings read alike, the source gives them in different places. Some results are limits rather than exact numbers.

On to `CC#CCOc1ccc(S(=O)(=O)N(C)C(C(=O)NO)C(C)C)cc1` (stereo not drawn) [Example 9, 2-[(4-but-2-ynyloxy-Benzenesulfonyl)-methyl-amino]-N-hydroxy-3-methyl-butyramide], for which the IC50 in assay [1] worked out at 4.5 nM; in assay [2] (read-out: MMP-1 IC50), 40 nM; in assay [3] (read-out: TACE IC50), 7.4 nM.

On to `CC#CCOc1ccc(S(=O)(=O)N(C)C(CSCc2cccnc2)C(=O)NO)cc1` (stereo not drawn) [Example 155, 2-[(4-but-2-ynyloxy-Benenesulfonyl)-methyl-amino]-N-hydroxy-3-(pyridin-3-ylmethylsulfanyl)-butyramide], for which the IC50 in assay [1] was 4.8 nM.

As for `CC#CCOc1ccc(S(=O)(=O)N2CCCSC(C)(C)[C@@H]2C(=O)NO)cc1` [Example 173], the IC50 was 16 nM in assay [1], 20 nM in assay [2] (read-out: MMP-1 IC50) and 111 nM in assay [3] (read-out: TACE IC50).

For `CC#CCOc1ccc(S(=O)(=O)N2CCCSC[C@@H]2C(=O)NO)cc1` [Example 174], the values for the IC50 in assay [1], in assay [2] (read-out: MMP-1 IC50) and in assay [3] (read-out: TACE IC50) were 36 nM, 408 nM and 20 nM, respectively.

Turning to `CC#CCOc1ccc(S(=O)(=O)N2CCCS(=O)(=O)C[C@@H]2C(=O)NO)cc1` [Example 175], the IC50 in assay [1] was 50 nM; in assay [2] (read-out: MMP-1 IC50), 1030 nM; in assay [3] (read-out: TACE IC50) it was 28 nM.

As to `CC#CCOc1ccc(S(=O)(=O)NC(C(=O)NO)c2ccc(OCCNC)cc2)cc1` (stereo not drawn) [Example 204], in assay [2] (MMP-1 IC50), the IC50 is around 10000 nM.

In the case of `CC#CCOc1ccc(S(=O)(=O)NC(C(=O)NO)c2ccc(OCCN3CCCC3)cc2)cc1` (stereo not drawn) [Example 205, 2-({[4-(2-Butynyloxy)phenyl]sulfonyl}amino)-N-hydroxy-2-{4-[2-(1-pyrrolidinyl)ethoxy]phenyl}acetamide], the IC50 is 146 nM in assay [1], around 10000 nM in assay [2] (read-out: MMP-1 IC50) and 24 nM in assay [3] (read-out: TACE IC50).

Take `CC#CCOc1ccc(S(=O)(=O)NC(C(=O)NO)c2ccc(OCCN(C)C)cc2)cc1` (stereo not drawn) [Example 207, 2-({[4-(2-Butynyloxy)phenyl]sulfonyl}amino){4-[2-(dimethylamino)ethoxy]phenyl}-N-hydroxyacetamide]: the IC50 in assay [1] was 112 nM; in assay [2] (read-out: MMP-1 IC50), above 10000 nM; in assay [3] (read-out: TACE IC50), 53 nM.

Turning to `CC#CCOc1ccc(S(=O)(=O)NC(C(=O)NO)c2ccc(OCCc3scnc3C)cc2)cc1` (stereo not drawn) [Example 208, 2-({[4-(2-Butynyloxy)phenyl]sulfonyl}amino)-N-hydroxy-2-{4-[2-(4-methyl-1,3-thiazol-5-yl)ethoxy]phenyl}acetamide], the IC50 was 230 nM in assay [1], above 10000 nM in assay [2] (read-out: MMP-1 IC50) and 69 nM in assay [3] (read-out: TACE IC50).

For the compound `CC#CCOc1ccc(S(=O)(=O)NC(C(=O)NO)c2ccc(OCCOCCOCCOC)cc2)cc1` (stereo not drawn) [Example 209, 2-({[4-(2-Butynyloxy)phenyl]sulfonyl}amino)-N-hydroxy-2-(4-{2-[2-(2-methoxyethoxy)ethoxy]ethoxy}phenyl)acetamide], the IC50 in assay [1] was 132 nM; in assay [2] (read-out: MMP-1 IC50) it was around 10000 nM; in assay [3] (read-out: TACE IC50), 39 nM.

On to `CC#CCOc1ccc(S(=O)(=O)NC(C(=O)NO)c2ccc(OCCOCCOC)cc2)cc1` (stereo not drawn) [Example 210, 2-({[4-(2-Butynyloxy)phenyl]sulfonyl}amino)-N-hydroxy-2-{4-[2-(2-methoxyethoxy)ethoxy]phenyl}acetamide], for which the IC50 in assay [1] was 278 nM; in assay [2] (read-out: MMP-1 IC50), above 10000 nM; in assay [3] (read-out: TACE IC50), 17 nM.

Consider `CC#CCOc1ccc(S(=O)(=O)N2CCSC3(CCN(Cc4ccccc4)CC3)C2C(=O)NO)cc1` (stereo not drawn) [Example 241, 9-Benzyl-4-{[4-(2-butynyloxy)phenyl]sulfonyl}-N-hydroxy-1-thia-4,9-diazaspiro[5.5]undecane-5-carboxamide], for which the IC50 in assay [1] (Table 9) worked out at 0.5 nM; in assay [2] (Table 9, read-out: MMP-1 IC50), 3.1 nM; in assay [3] (Table 9, read-out: TACE IC50) it was 786 nM.

For `CC(C)(C)OC(=O)NCCCCC#CCOc1ccc(S(=O)(=O)N2CCSC(C)(C)[C@@H]2C(=O)NO)cc1` [Example 252, tert-Butyl 7-[4-({(3S)-3-[(Hydroxyamino)carbonyl]-2,2-dimethylthiomorpholinyl}sulfonyl)phenoxy]-5-heptynylcarbamate], the IC50 stood at 4.3 nM in assay [1] (Table 10); 87 nM in assay [2] (Table 10, read-out: MMP-1 IC50); 199 nM in assay [3] (Table 10, read-out: TACE IC50).

As for `CC1(C)SCCN(S(=O)(=O)c2ccc(OCC#CCCCCN)cc2)[C@H]1C(=O)NO` [Example 253], the IC50 stood at 7.3 nM in assay [1] (Table 10); 92 nM in assay [2] (Table 10, read-out: MMP-1 IC50); 40 nM in assay [3] (Table 10, read-out: TACE IC50).

In the case of `CC1(C)SCCN(S(=O)(=O)c2ccc(OCC#Cc3ccccc3)cc2)[C@H]1C(=O)NO` [Example 254, (3S)-N-Hydroxy-2,2-dimethyl-4-({4-[(3-phenyl-2-propynyl)oxy]phenyl}sulfonyl)-3-thiomorpholine Carboxamide], the IC50 in assay [1] (Table 10) is 11 nM; in assay [2] (Table 10, read-out: MMP-1 IC50), 13 nM; in assay [3] (Table 10, read-out: TACE IC50) it was 173 nM.

For the compound `C#CCOc1ccc(S(=O)(=O)N2CCSC(C)(C)[C@@H]2C(=O)NO)cc1` [Example 258, (3S)-N-Hydroxy-2,2-dimethyl-4-{[4-(2-propynyloxy)phenyl]sulfonyl}-3-thiomorpholine Carboxamide], the IC50 turned out to be 0.8 nM in assay [1] (Table 9); 0.6 nM in assay [2] (Table 9, read-out: MMP-1 IC50); 19 nM in assay [3] (Table 9, read-out: TACE IC50).

For the compound `CCC#CCOc1ccc(S(=O)(=O)N2CCSC(C)(C)[C@@H]2C(=O)NO)cc1` [Example 259, (3S)-N-Hydroxy-2,2-dimethyl-4-{[4-(2-pentynyloxy)phenyl]sulfonyl}-3-thiomorpholine Carboxamide], the IC50 came out at 5 nM in assay [1] (Table 9); 5.9 nM in assay [2] (Table 9, read-out: MMP-1 IC50); 28 nM in assay [3] (Table 9, read-out: TACE IC50).

On to `CC(=O)OCC#CCOc1ccc(S(=O)(=O)N2CCSC(C)(C)[C@@H]2C(=O)NO)cc1` [Example 261, 4-[4-({(3S3-[(Hydroxyamino)carbonyl]-2,2-dimethylthiomorpholinyl}sulfonyl)phenoxy]-2-butynyl Acetate], for which the IC50 is 1.1 nM in assay [1] (Table 10); 103 nM in assay [2] (Table 10, read-out: MMP-1 IC50); 45 nM in assay [3] (Table 10, read-out: TACE IC50).

Turning to `CC1(C)SCCN(S(=O)(=O)c2ccc(OCC#CC#CCO)cc2)[C@H]1C(=O)NO` [Example 262, (3S)-N-Hydroxy-4-({4-[(6-hydroxy-2,4-hexadiynyl)oxy]phenyl}sulfonyl)-2,2-dimethyl-3-thiomorpholine Carboxamide], the IC50 in assay [1] (Table 10) was determined as 14 nM; in assay [2] (Table 10, read-out: MMP-1 IC50), 9.9 nM; in assay [3] (Table 10, read-out: TACE IC50), 39 nM.

For the compound `C#CC#CCOc1ccc(S(=O)(=O)N2CCSC(C)(C)[C@@H]2C(=O)NO)cc1` [Example 263], the IC50 in assay [1] (Table 10) is 11 nM; in assay [2] (Table 10, read-out: MMP-1 IC50) it was 5.7 nM; in assay [3] (Table 10, read-out: TACE IC50), 42 nM.

Take `CC1(C)SCCN(S(=O)(=O)c2ccc(OCC#CCF)cc2)[C@H]1C(=O)NO` [Example 264, (3S)-4-({4-[(4-Fluoro-2-butynyl)oxy]phenyl}sulfonyl)-N-hydroxy-2,2-dimethyl-3-thiomorpholine Carboxamide]: the IC50 amounted to 2.5 nM in assay [1] (Table 10); 11 nM in assay [2] (Table 10, read-out: MMP-1 IC50); 35 nM in assay [3] (Table 10, read-out: TACE IC50).

Turning to `CC(=O)OCCCCC#CCOc1ccc(S(=O)(=O)N2CCSC(C)(C)[C@@H]2C(=O)NO)cc1` [Example 268, 7-[4-({(3S)-3-[(Hydroxyamino)carbonyl]-2,2-dimethylthiomorpholinyl}sulfonyl)phenoxy]-5-heptynyl Acetate], the IC50 is 2.9 nM in assay [1] (Table 10); 29 nM in assay [2] (Table 10, read-out: MMP-1 IC50); 78 nM in assay [3] (Table 10, read-out: TACE IC50).

For `CC1(C)SCCN(S(=O)(=O)c2ccc(OCC#CCCCCO)cc2)[C@H]1C(=O)NO` [Example 269, (3S)-N-Hydroxy-4-([4-[(7-hydroxy-2-heptynyl)oxy]phenyl}sulfonyl)-2,2-dimethyl-3-thiomorpholinecarboxamide], the IC50 in assay [1] (Table 10) is 17 nM; in assay [2] (Table 10, read-out: MMP-1 IC50), 101 nM; in assay [3] (Table 10, read-out: TACE IC50), 53 nM.

Take `CC#CCOc1ccc(S(=O)(=O)N2[C@@H](C(=O)NO)C(C)(C)SC[C@@H]2C)cc1` [Example 270, (3S,5S)-4-{[4-(2-Butynyloxy)phenyl]sulfonyl}-N-hydroxy-2,2,5-trimethyl-3-thiomorpholinecarboxamide]: the IC50 stood at 61 nM in assay [1] (Table 11); 32 nM in assay [2] (Table 11, read-out: MMP-1 IC50); 86 nM in assay [3] (Table 11, read-out: TACE IC50).

In the case of `CC#CCOc1ccc(S(=O)(=O)N2[C@H](C)CSC(C)(C)[C@@H]2C(=O)NO)cc1` [Example 271, (3S,5R)-4-{[4-(2-Butynyloxy)phenyl]sulfonyl}-N-hydroxy-2,2,5-trimethyl-3-thiomorpholinecarboxamide], the IC50 in assay [1] (Table 11) came to 88 nM; in assay [2] (Table 11, read-out: MMP-1 IC50), 47 nM; in assay [3] (Table 11, read-out: TACE IC50) it was 45 nM.

As to `CC#CCOc1ccc(S(=O)(=O)N2CCN(C(=O)OC(C)(C)C)CCC2C(=O)NO)cc1` (stereo not drawn) [Example 291, tert-Butyl 4-{[4-(2-Butynyloxy)phenyl]sulfonyl}-5[(hydroxyamino)carbonyl]-1,4-diazepane-1-carboxylate], the IC50 in assay [2] (read-out: MMP-1 IC50) was 92 nM; in assay [3] (read-out: TACE IC50), 74 nM.

For `CC#CCOc1ccc(S(=O)(=O)N[C@H](CCCNC(=O)CNCc2ccccc2)C(=O)NO)cc1` [Example 378, (2R)-5-{[2-(Benzylamino)acetyl]amino}-2-({[4-(but-2-ynyloxy)phenyl]sulfonyl}amino)-N-hydroxypentanamide], in assay [3] (IC 50 nM (In Vitro Inhibition of TACE), Table 15), the IC50 was 22.8 nM.

For “(2R)-2-({[4-(But-2-ynyloxy)phenyl]sulfonyl}amino)-5-{[2-(3,4-dichlorophenyl)acetyl]amino}-N-hydroxypentanamide [Example 336]”, the IC50 in assay [3] (read-out: IC 50 nM (In Vitro Inhibition of TACE), Table 15) stood at 6.11 nM.
